In patent publication US20240034761A1, “REGENERATION OF MAMMALIAN TISSUES USING SYNTHETIC IMMODULINS” (priority 2022, published 2024):
Marks after values point to notes of the source that are not given here. Peptide text beside a SMILES is read from it.

Key:
[1] = tested on: Osteoblast cell line MC3T3E1; assay: MC3T3E1 osteoblast differentiation, alkaline phosphatase; type: cell-based; settings: peptide 0.66 uM, 5 days, immX3AVD = 100
Method: Yet another non-myeloid lineage was tested. Osteoblast cell line MC3T3E1 was purchased from ATCC (Manassas, VA) and grown in 96-well plates in alpha-MEM medium supplemented with 50 ug/ml ascorbic acid and 5 mM beta-glycerophosphate. Peptides were added and incubation proceeded for 5 days. Cells were washed with PBS buffer and extracts prepared using 100 uL 1X RIPA buffer (Cayman Chemical Company; Ann Arbor, MI) per well. Alkaline phosphatase was measured using 0.37 mg/ml 4-nitrophenyl phosphate in DEA buffer (both reagents purchased from Cayman Chemical Company) by measuring the slope of absorbance at 405 nm using a spectrophotometer. 10 uL of RIPA extract was used for each assay. Separately, protein concentration of extract was measured using a commercial kit. Values were corrected for protein concentration. Results are shown below (**p<0.05 vs immX3AVD=100): […]

[2] = tested on: THP1-Dual monocyte reporter cell line; assay: Adjuvant effect of helper molecules on immX3 peptide potency in THP1-Dual assay; type: cell-based, human; settings: immX3 peptide 330 nM, no helper (buffer)
Method: (§1) Mammalian cell differentiation assays employed the THP1-Dual monocyte reporter cell line (Invivogen Inc, San Diego, CA) seeded at 2×10e5 cells per well in 96-well plates and cultured at 37 degrees C. in RPMI-1640 growth medium plus 10% fetal bovine serum and 1% penicillin/streptomycin. Cells were subsequently treated for 24 hours with 100 ng/ml Phorbol 12-myristate 13-acetate (PMA protocol; Cayman Chemical Company, Ann Arbor, MI). Peptide (0.33 uM or 0.66 uM, as indicated) was then added, and incubation continued for an additional 24 hours. Culture supernatants were assayed for CCL22. Plates with adherent cells were washed with PBS and assayed for immunoreactivity of surface markers such as CD169, Clec9a or Clec12a using fuorescent tag- or biotin-labeled anti-human antibodies purchased from Miltenyi Biotec (Auburn, CA) and the secondary detection reagent recommended by the manufacturer.
The THP1-Dual cell differentiation assay was carried out as described above in Example 2, using immX3 peptide (330 nM) in all samples plus the indicated helper or inhibitor molecule. Molecules were purched from Cayman Chemical Company (Ann Arbor, MI) or Sigma Chemical Company (St. Louis, MO). AU=arbitrary ELISA units. **p<0.01.

[3] = tested on: Primary human T-cells pre-selected for recognizing GAD65 peptide antigen; assay: GAD65-specific primary T-cell differentiation on peptide-treated THP1-Dual cells; type: cell-based; settings: peptide 0.66 uM, GAD65 1 ug/ml
Method: as §1
Another non-myeloid lineage was also tested. Primary human T-cells pre-selected for recognizing GAD65 peptide antigen, and the peptide antigen itself were purchased from Cellero LLC (Memphis, TN). THP1-Dual cells were treated with both GAD65 peptide antigen (1 ug/ml) and immodulin peptide (0.66 uM) using the protocol described in Example 2. After completion of the myeloid cell differentiation step (24 hours), supernatants were collected and 100,000 primary T-cells were added to each well in RPMI-1640 medium (100 uL per well). Plates were incubated for an additional 96 hours and cell extracts were prepared using CellLytic-M reagent (Sigma Chemical Co., St Louis, MO). Supernatants were assayed for CCL22, IL-10 and TGFbeta, and cell extracts assayed for FoxP3, all by ELISA using reagents from R&D Systems, Minneapolis, MN. The results are shown in the table below (**p<0.05 vs immX3AVD, set to=100): […]

[4] = Plate binding of FITC-labelled heparin to immobilised biotinylated peptides; settings: 400 ng peptide/well, 1 ug FITC-heparin, PBS; normalized to immX3 peptide binding = 100
Method: (§2) Effects of pH, PIP2 and size classes: Streptavidin-coated 96-well plates (G-Biosciences, St. Louis, MO) were pre-loaded with biotinylated peptides [see Example 1] at 400 ng/well, at room temperature for 60 minutes. The plate was washed with PBS buffer and then 1 ug FITC-labelled heparin or hyaluronic acid (FITC-HMW-HA) in 100 uL PBS buffer was added per well (all tests done in quadruplicate). Incubation proceeded for 90 minutes at room temperature, followed by two PBS washes. The plate was read in a standard laboratory fluorometer (488/525 nm exitation/[…]) and the counts normalized for immX3 peptide binding=100. Values statistically above background are shown in bold font. **p<0.05 versus immX3AVD.

[5] = tested on: THP1-Dual monocyte reporter cell line; assay: THP1-Dual myeloid cell differentiation assay (PMA protocol); type: cell-based, human; settings: PMA 24 h, then peptide 0.33 uM or 0.66 uM 24 h
Procedure, shortened: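 THP1-Dual monocytes were primed for 24 h with 100 ng/ml PMA, then given peptide (0.33 uM or 0.66 uM) for a further 24 h at 37 degrees C. CCL22 was measured in the supernatants. Adherent cells were stained for surface markers such as CD169, Clec9a or Clec12a with labeled anti-human antibodies.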

recombinant CD44 protein = target: T1, recombinant CD44 protein (Homo sapiens, UniProt P16070); assay: Third binding experiment: CD44 binding to peptide/holotransferrin/hyaluronan complexes; settings: for CD44 immunoreactivity, 1.5 ug/w HMW-HA: immX3AVD + 1.5 ug HMW-HA set to 100 AU; for CD44 immunoreactivity, CONTROL: no hyaluronan, 100 ng/well CD44
T1 construct: purchased Abcam, Waltham, MA
Method: as §2
A third binding experiment was done as described above using immX3AVD peptide with or without 10 ug/well holotransferrin (holoTf) plus either 10 ug/well LMW-HA or either 1.5 ug or 10 ug HMW-HA/well in the binding step, followed by a buffer wash step. 100 ng/well pure recombinant CD44 protein (Abcam, Waltham, MA) was then added to the indicated wells, incubated for 60 minutes at room temperature and the plate was washed with buffer. Anti-CD44 monoclonal antibody (Abcam, Waltham, MA) was added towells at 1:200, incubated for 60 minutes at room temperature and the plate was then washed and developed by secondary antibody and TMB detection as recommended by the manufacturer. CD44 immunoreactivity was expressed in arbitrary immunoreactivity units (AU), with **p<0.05 versus immx3AVD+1.5 ug HMW-HA control, which was set to=100 AU.

[6] = Plate binding of FITC-labelled hyaluronic acid to immobilised biotinylated peptides; settings: 400 ng peptide/well, 1 ug FITC-HMW-HA, PBS; normalized to immX3 peptide binding = 100
Method: as §2

T1 sequence (P16070 21-742, species assumed): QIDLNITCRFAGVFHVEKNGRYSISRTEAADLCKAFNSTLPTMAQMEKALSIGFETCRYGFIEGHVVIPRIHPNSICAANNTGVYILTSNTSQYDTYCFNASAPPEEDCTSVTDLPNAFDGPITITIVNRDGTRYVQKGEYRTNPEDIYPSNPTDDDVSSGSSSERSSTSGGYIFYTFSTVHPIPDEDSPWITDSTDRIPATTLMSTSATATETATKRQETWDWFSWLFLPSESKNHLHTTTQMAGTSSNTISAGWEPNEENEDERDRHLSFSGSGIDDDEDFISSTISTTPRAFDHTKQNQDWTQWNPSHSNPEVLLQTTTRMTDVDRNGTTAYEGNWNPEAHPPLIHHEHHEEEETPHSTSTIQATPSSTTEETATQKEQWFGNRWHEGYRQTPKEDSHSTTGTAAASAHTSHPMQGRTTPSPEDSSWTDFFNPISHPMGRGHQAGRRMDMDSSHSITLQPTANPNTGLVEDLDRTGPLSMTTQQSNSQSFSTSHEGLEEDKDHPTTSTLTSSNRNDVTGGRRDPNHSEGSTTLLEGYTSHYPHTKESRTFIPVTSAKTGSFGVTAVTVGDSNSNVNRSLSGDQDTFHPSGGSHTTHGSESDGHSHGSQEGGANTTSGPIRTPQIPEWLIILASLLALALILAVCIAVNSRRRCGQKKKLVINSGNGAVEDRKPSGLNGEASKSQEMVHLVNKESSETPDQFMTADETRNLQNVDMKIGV

Structure (SMILES): CC(C)[C@H](NC(=O)[C@H](C)NC(=O)[C@H](Cc1c[nH]c2ccccc12)NC(=O)[C@H](CS)NC(=O)[C@H](Cc1ccccc1)NC(=O)CNC(=O)[C@H](CCCNC(=N)N)NC(=O)[C@H](CCCCN)NC(=O)[C@H](CCCNC(=N)N)NC(=O)CNC(=O)[C@H](CCCCN)NC(=O)[C@H](CO)NC(=O)[C@@H]1CCCN1C(=O)[C@H](CCCNC(=N)N)NC(=O)[C@H](CS)NC(=O)[C@H](CCC(N)=O)NC(=O)[C@H](CCCCN)NC(=O)[C@H](CCCCN)NC(=O)[C@H](CCCCN)NC(=O)[C@H](Cc1ccc(O)cc1)NC(=O)[C@H](Cc1ccccc1)NC(=O)CNC(=O)[C@H](CCCCN)NC(=O)[C@@H](N)CCCCN)C(=O)N[C@@H](CC(=O)O)C(=O)O [immX3AVD] (H-KKGFYKKKQCRPSKGRKRGFCWAVD-OH)
- Alk. Phos. Activity ([1]; compound added: None): 100.0 ± 0.5
- Alk. Phos. Activity ([1]; plus 2 uM Ciprofibrate): 127.2 ± 2.7**
- Alk. Phos. Activity ([1]; plus 2 uM GW 3965): 59.1 ± 4.3**
- Alk. Phos. Activity ([1]; plus 2 uM GW 501516): 168.7 ± 3.0**
- Alk. Phos. Activity ([1]; plus 1 mM D-raffinose): 134.6 ± 4.6**
- Alk. Phos. Activity ([1]; plus 1 mM L-ornithine): 159.7 ± 4.4**
- CD169 (AU) [2]: 100.0 ± 4.9 AU
- FoxP3 (AU) ([3]; cell extracts, immX3AVD = 100): 100.0 ± 20.5 AU
- CCL22 ([3]; supernatant): 88.8 ± 13.6 pg/mL
- IL-10 ([3]; supernatant): 1331 ± 94.3 pg/mL
- TGFb ([3]; supernatant): 131.4 ± 41.4 pg/mL
- Heparin binding (fluorescence counts) [4]: 100.0 ± 4.7
- CD169+ (AU) ([5]; relative to immX3AVD = 100): 100 AU
- Clec12A(AU) ([5]; relative to immX3AVD = 100): 100 AU
- CCL22 ([5]; culture supernatant): 282.4 ± 18.4 pg/mL
- CD44 immunoreactivity, 10 ug/w HMW-HA (recombinant CD44 protein; pH 5.2): 105.1 ± 11.4 AU
- CD44 immunoreactivity, 10 ug/w LMW-HA (recombinant CD44 protein; pH 5.2): 102.6 ± 17.9 AU
- CD44 immunoreactivity, 1.5 ug/w HMW-HA (recombinant CD44 protein; pH 5.2): 100.0 ± 4.6 AU
- CD44 immunoreactivity, CONTROL (recombinant CD44 protein; pH 5.2): 13.2 ± 22.0** AU
- CD44 immunoreactivity, 10 ug/w HMW-HA (recombinant CD44 protein; pH 7.4): 101.1 ± 4.9 AU
- CD44 immunoreactivity, 10 ug/w LMW-HA (recombinant CD44 protein; pH 7.4): 103.0 ± 19.4 AU
- CD44 immunoreactivity, 1.5 ug/w HMW-HA (recombinant CD44 protein; pH 7.4): 100.0 ± 15.5 AU
- CD44 immunoreactivity, CONTROL (recombinant CD44 protein; pH 7.4): 19.6 ± 13.0** AU
- Hyaluronate binding (fluorescence counts) [6]: 100.0 ± 22.8
